Data: patent US20190062362A1, “METHOD FOR OBTAINING SURFACTANT COMPOSITIONS MADE FROM ALKYL-L-GULURONAMIDES” (ÉCOLE NATIONALE SUPÉRIEURE DE CHIMIE, priority 2015, published 2019)

Assays:
Experiment in all cases: Protocol A: agar deposit test, clarification zone
Type in all cases: cell-based
Escherichia Coli = conditions: E. coli; for inhibitory activity on growth (in words): text summary of protocol A
Method: (§1) The culture medium used was a mixture of 21 g/L of Muller-Hinton broth and 10 g/L of agar in water. This mixture was stirred and then left to boil. Next, a step of autoclaving of this mixture, for 30 minutes, was desired in this embodiment so as to sterilize it before any manipulation. This culture medium was poured hot into Petri dishes and then left to cool.
(§2) 5 mg of each modified sugar were dissolved in 1 mL of DMSO. Twofold serial dilution with DMSO was then performed using the stock solution, so as to obtain concentrations of 2.5 g/L, 1.25 g/L, 0.625 g/L and 0.3125 g/L.
(§3) The bacterial strains used were Pseudomonas aeruginosa, Escherichia Coli, Enterococcus faecium and Staphylococcus aureus, and also the fungal strain Candida albicans. 10^6 bacteria were taken and then transferred into 0.9% NaCl solution. Each Petri dish, containing Muller-Hinton medium, was flooded with a different bacterial suspension.
(§4) After allowing the bacterial suspensions to dry on the agar, 10 μL of each test solution, and at various concentrations, were deposited on the surface of the agar flooded with the bacterial suspension. 10 μL of DMSO were placed in each Petri dish as a negative control.
(§5) The positive controls used were disks soaked with ampicillin for Escherichia coli and Enterococcus faecium, ceftazidime disks for Pseudomonas aeruginosa and vancomycin disks for Staphylococcus aureus.
(§6) After drying, the Petri dishes were finally incubated at 37° C. in an oven, for 24 hours. The antibacterial activity was evaluated by measuring the clarification zone in millimeters around the point of deposition of the various test solutions.

Enterococcus faecium = conditions: E. faecium; antibiotic disk
Method: as §1, §2, §3, §4, §5, §6

Pseudomonas aeruginosa = conditions: P. aeruginosa; for inhibitory activity on growth (in words): text summary of protocol A
Method: as §1, §2, §3, §4, §5, §6

Staphylococcus aureus = conditions: S. aureus
Method: as §1, §2, §3, §4, §5, §6

Candida albicans = conditions: C. albicans; text summary of protocol A
Method: as §1, §2, §3
After allowing the bacterial suspensions to dry on the agar, 10 μL of each test solution, and at various concentrations, were deposited on the surface of the agar flooded with the bacterial suspension. […]
as §6

In the case of `CC1(C)S[C@@H]2[C@H](NC(=O)[C@H](N)c3ccccc3)C(=O)N2[C@H]1C(=O)O` [Ampicillin, reference compound], the “clarification zone, positive control” value (Escherichia Coli; antibiotic disk) is reported as 22 mm and the “clarification zone, positive control” value (Enterococcus faecium) is reported as 26 mm.

For `CC(C)(O/N=C(\C(=O)N[C@@H]1C(=O)N2C(C(=O)[O-])=C(C[n+]3ccccc3)CS[C@H]12)c1csc(N)n1)C(=O)O` [Ceftazidime, reference compound], the “clarification zone, positive control” value (Pseudomonas aeruginosa; antibiotic disk) was 28 mm.

In the case of `CN[C@H](CC(C)C)C(=O)N[C@H]1C(=O)N[C@@H](CC(N)=O)C(=O)N[C@H]2C(=O)N[C@H]3C(=O)N[C@H](C(=O)N[C@H](C(=O)O)c4cc(O)cc(O)c4-c4cc3ccc4O)[C@H](O)c3ccc(c(Cl)c3)Oc3cc2cc(c3O[C@@H]2O[C@H](CO)[C@@H](O)[C@H](O)[C@H]2O[C@H]2C[C@](C)(N)[C@H](O)[C@H](C)O2)Oc2ccc(cc2Cl)[C@H]1O` [Vancomycin, reference compound], the “clarification zone, positive control” value (Staphylococcus aureus; antibiotic disk) is reported as 19 mm.

With N-(12 dodecyl)-n-butyl L-guluronamide the “inhibitory activity on growth (in words)” value (Pseudomonas aeruginosa) was “neither the N-(12 dodecyl)-n-butyl L-guluronamide nor the N-(18 octadecyl)-n-butyl L-guluronamide (whether in furanose or pyranose form) showed any inhibitory activity” and the “inhibitory activity on growth (in words)” value (Escherichia Coli) was “neither the N-(12 dodecyl)-n-butyl L-guluronamide nor the N-(18 octadecyl)-n-butyl L-guluronamide (whether in furanose or pyranose form) showed any inhibitory activity”.

For N-(18 octadecyl)-n-butyl L-guluronamide, the “inhibitory effect (in words)” value (Candida albicans) was “no inhibitory effect”, the “inhibitory effect (in words)” value (Staphylococcus aureus; text summary of protocol A) was “no inhibitory effect” and the “inhibitory activity on growth (in words)” value (Pseudomonas aeruginosa) was “neither the N-(12 dodecyl)-n-butyl L-guluronamide nor the N-(18 octadecyl)-n-butyl L-guluronamide (whether in furanose or pyranose form) showed any inhibitory activity”. For the same molecule, the “inhibitory activity on growth (in words)” value (Escherichia Coli) was “neither the N-(12 dodecyl)-n-butyl L-guluronamide nor the N-(18 octadecyl)-n-butyl L-guluronamide (whether in furanose or pyranose form) showed any inhibitory activity”.
